Experimental data taken from patent US20120225862A1, “HETEROARYL BENZAMIDES, COMPOSITIONS AND METHODS OF USE” (AUCKLAND UNIVSERVICES LIMITED, priority 2009, published 2012).

Tests used:
RCC4 [1] = assay: XTT IC50 / viability assay, RCC4 cells; type: cell-based, human; conditions: for IC50: Homo sapiens, RCC4, 96 h, XTT assay, four days
Outline: (§1)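 RCC4 parental and VHL-reintroduced RCC4/VHL cells (DMEM, 10% FCS) treated with serially diluted drug for four days. Viability by XTT (0.3 mg/mL) with N-methyl dibenzopyrazine methyl sulfate, 1–2 h at 37 °C, absorbance 450 nm; IC50 by linear interpolation.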

RCC4/VHL [2] = assay: XTT IC50 assay, selectivity RCC4 versus RCC4 with VHL-reintroduced; type: cell-based, human; conditions: selectivity ratio of XTT IC50 values, RCC4 vs RCC4/VHL
Outline: as §1

RCC4 [3] = assay: Clonogenic survival, RCC4; type: cell-based, human; conditions: RCC4 (VHL-deficient), 5 μM, 10 days
Method: Three hundred cells were plated into 60-mm tissue culture dishes in DMEM. The next day, cells were treated with vehicle or drug and were further incubated for an additional 10 days. […] The stain was removed and plates were washed in deionized water. Colonies were quantified. All conditions were measured in triplicate and all experiments were performed in triplicate.
For 2,3-bis[2-methoxy-4-nitro-5-sulfophenyl]-2H-tetrazolium-5-carboxanilide (XTT) assays, five thousand cells were plated in 96-well plates. The next day, vehicle (DMSO) or drug was added by serial dilution. […] Metabolism of XTT was quantified by measuring the absorbance at 450 nm. IC50s were calculated using linear interpolation. For clonogenic survival assays, three hundred cells were plated per 60 mm tissue culture dish. The cells were allowed to attach overnight and then treated with vehicle or drug for […]. […] All conditions were measured in triplicate and each experiment was done in duplicate or triplicate. To determine necrosis, cells were treated with drug for a given time point. Media and cells were collected, centrifugated, and resuspended in 0.4% trypan blue (Invitrogen). Live and dead cells were counted on a hematocytometer.

RCC4/VHL [4] = assay: Clonogenic survival, RCC4/VHL; type: cell-based, human; conditions: RCC4/VHL (wild-type VHL), 5 μM, 10 days
Method: Three hundred cells were plated into 60-mm tissue culture dishes in DMEM. The next day, cells were treated with vehicle or drug and were further incubated for an additional 10 days. After 10 days, the media was removed and colonies were fixed and stained in 95% ethanol and 0.1% crystal violet for 15 minutes. The stain was removed and plates were washed in deionized water. Colonies were quantified. All conditions were measured in triplicate and all experiments were performed in triplicate.
For 2,3-bis[2-methoxy-4-nitro-5-sulfophenyl]-2H-tetrazolium-5-carboxanilide (XTT) assays, five thousand cells were plated in 96-well plates. The next day, vehicle (DMSO) or drug was added by serial dilution. Four days later, media were aspirated, XTT solution (0.3 mg/ml of XTT (Sigma), 2.65 mg/ml N-methyl dibenxopyrazine methyl sulfate (Simga) in phenol red-free media) was added, and the plates were incubated at 37° C. for 1-2 hours. Metabolism of XTT was quantified by measuring the absorbance at 450 nm. IC50s were calculated using linear interpolation. For clonogenic survival assays, three hundred cells were plated per 60 mm tissue culture dish. The cells were allowed to attach overnight and then treated with vehicle or drug for 14 days. […] All conditions were measured in triplicate and each experiment was done in duplicate or triplicate. […] Live and dead cells were counted on a hematocytometer.

GLUT1 = target: T1, GLUT1 (Homo sapiens, UniProt P11166); assay: Affi-gel affinity binding of GLUT1 from cell lysates; conditions: salt elution, immunoblot; for binding of GLUT1 to Affi-gel immobilized compound, RCC4 lysates: RCC4 cell lysates
T1 construct: endogenous in cells; host or cells: RCC4 and RCC4/VHL cell lysates
T1 sequence (P11166 1-492): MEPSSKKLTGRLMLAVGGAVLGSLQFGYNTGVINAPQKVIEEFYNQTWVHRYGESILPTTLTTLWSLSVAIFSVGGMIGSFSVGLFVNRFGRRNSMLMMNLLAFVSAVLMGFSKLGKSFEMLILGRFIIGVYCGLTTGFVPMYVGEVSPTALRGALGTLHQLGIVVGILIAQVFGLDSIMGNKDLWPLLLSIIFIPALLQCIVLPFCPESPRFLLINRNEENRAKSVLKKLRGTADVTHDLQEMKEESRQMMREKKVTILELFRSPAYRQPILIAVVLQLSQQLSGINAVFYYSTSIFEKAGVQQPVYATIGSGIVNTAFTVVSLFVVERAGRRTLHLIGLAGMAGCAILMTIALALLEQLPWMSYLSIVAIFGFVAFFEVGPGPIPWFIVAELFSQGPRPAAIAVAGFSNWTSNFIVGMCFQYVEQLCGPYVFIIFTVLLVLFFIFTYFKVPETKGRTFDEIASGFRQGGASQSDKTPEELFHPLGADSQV
Method: All cells were grown in DMEM+10% FCS. ACHN and ACHN shVHL were a kind gift from George V. Thomas (UCLA). HIF overexpressing clones were described previously. Transfection of RNA oligos were performed with DnarmaFECT Reagent 1 (Dharmcon), according to manufacturer's directions. ON-TARGETplus SMART pools against HIF-1β/ARNT were purchased from Dharmacon. Glut1 was detected with anti-GLUT1 antibody from NeoMarkers/LabVision/Fisher. Pyruvate/lactate levels and hexokinase activity were both measured by fluorometric assay (BioVision and Sigma-Aldrich, respectively). ATP levels were measured by bioluminescence assay (ATP Determination Kit from Molecular Probes/Invitrogen). In vitro kinase activities were performed by Millipore KinaseProfiler. Affi-Gel 10 (BioRad) activated affinity media was coupled to analogs to generate immobilized affinity linkers.
We next wanted to investigate the differential glucose uptake between RCCs with and without VHL treated with compound 47 that subsequently lead to the selective death of VHL-deficient cells. We first examined the message levels of the two main glucose transporters, GLUT1 and GLUT2 by quantitative real-time PCR. GLUT1 is an inducible, high-affinity glucose transporter, while GLUT2 is the glucose transporter responsible for basal glucose uptake. Other family members, such as GLUT3 and GLUT4, are not expressed in renal cells. GLUT1 was highly expressed in cells lacking VHL, while cells with VHL had very low levels of GLUT1 (FIG. 3I). In contrast, GLUT2 was highly expressed in cells with wild-type VHL. Cells deficient in VHL had very low levels of GLUT2 that could barely be detected (FIG. 3J). […] In order to more directly test this, we performed binding assays to see whether compound 47 was directly interacting with GLUT1. An analog of compound 47, compound 116 was synthesized and linked to an immobilized linker (Affi-gel 10). Cell lysates from both RCC4 and RCC4/VHL were incubated with the Affi-gel-compound 47. […]

RCC4 [5] = assay: 3H-2-deoxyglucose uptake, RCC4; type: cell-based, human; conditions: 3H-2-deoxyglucose, two days of treatment, 5 μM
Method: One hundred thousand cells were plated into 6-well plates. The following day, the cells were treated with vehicle or drug and incubated for the indicated time. Cells were washed twice in phosphate buffered saline and low glucose media was added for 30 minutes. Cells were then incubated with 0.5 microCi of tritiated-2-deoxyglucose and incubated for an hour at 37° C. Cells were washed twice in PBS and then lysed in 0.2 N NaOH and 0.2% SDS. Lysates were transferred to scintillation tubes with scintillation fluid and quantified by scintillation counter.
One hundred thousand cells were plated per well in a six-well plate. The next day, cells were treated with the indicated concentration of drug and incubated for the indicated time. Cells were then washed twice with phosphate-buffered saline, incubated in low-glucose medium for 30 minutes, and ^3H-2-deoxyglucose (0.5 μCi) was added in 1 ml of glucose-free media for an additional hour. Cells were washed twice in PBS and lysed (0.2 N NaOH and 0.2% sodium dodecyl sulfate). Glucose uptake was quantified with a scintillation counter.

786-O = assay: FDG-PET imaging of 786-O xenografts; type: in vivo, mice; conditions: 786-O xenografts in CD-1 nude mice, three daily i.p. doses (11.6 mg/kg)
Method: FIG. 5A-E In vivo monitoring and efficacy of compound 47. […] 786-O, a renal clear cell carcinoma with a naturally occurring VHL mutation, were implanted subcutaneously into the flanks of CD-1 nude mice. Representative axial cross section of a mouse prior to treatment (left) and following three daily i.p. injections with compound 85 (11.6 mg/kg)(right), overlaid over CT scan. (B) Quantitatively, compound 85 inhibits FDG-PET in mouse xenografts. Quantification of FDG-PET inhibition by compound 85 as determined by the 90th percentile ROI for percent injected dose per gram (% ID/g) (*p<0.01). (C) Compound 85 is not toxic to normal tissues. (a, b) Kidney of vehicle- and compound 85-treated animals. (c, d) Spleen of vehicle- and compound 85-treated animals. (e, f) Liver of vehicle- and compound 85-treated animals. (g, h) Heart of vehicle- and compound 85-treated animals. (i, j) Salivary gland of vehicle- and compound 85-treated animals. (k, l) Brain of vehicle- and compound 85-treated animals. Scale bar represents 100 microns. (D) Compound 85 delays tumor growth. 786-O tumor-bearing mice were treated daily with vehicle or compound 85 (11.6 mg/kg for the first 3 days, followed by 7.8 mg/kg for the next week)(*p<0.005). (E) Compound 85 delays tumor growth in cells that have lost VHL. ACHN cells expressing a short hairpin RNA to VHL were implanted subcutaneously into the flanks of immunocompromised mice. Once tumors reached an average of >20 mm^3, mice were treated daily with compound 85 or vehicle (*p<0.05). All error bars represent the standard error of the mean.
In Vivo Studies and Immunohistochemistry. All experiments were approved by Stanford's Administrative Panel on Laboratory Animal Care (APLAC) and in accordance with both institutional and national guidelines. Five million cells were implanted subcutaneously into the flanks of nude mice (4-6 weeks old)(Charles River Laboratories). Tumors were measured with calipers. Volume was calculated by the following formula: width^2×0.5 length. […]

melting point [°C]	Compound	IC50 (RCC4 [1]) [µM]	other results
–	COc1cccc(S(=O)(=O)NCc2ccc(C(=O)Nc3cccnc3)cc2)c1 [Example 18, 4-((3-Methoxyphenylsulfonamido)methyl)-N-(pyridin-3-yl)benzamide]	1 to 20	number of RCC4 cells compared to RCC4/VHL (XTT metabolic activity) (RCC4 [1]; four days of treatment, concentration-dependent, FIG. 2A): significant decrease in the number of RCC4 cells; Ratio (RCC4:RCC/VHL) (RCC4/VHL [2]): b (“b” reflects from 10 to 100); clonogenic survival of RCC4 (RCC4 [3]): specifically toxic to RCC4 cells; clonogenic survival of RCC4/VHL (RCC4/VHL [4]): relatively unaffected
–	Cc1cccc(Nc2nc(-c3ccnc(-c4cn(CCCCCCN)nn4)c3)cs2)c1 [4-{2-[1-(6-aminohexyl)-1H-1,2,3-triazol-4-yl]-4-pyridinyl}-N-(3-methylphenyl)-1,3-thiazol-2-amine, reference compound]	–	binding of GLUT1 to Affi-gel immobilized compound, RCC4/VHL lysates (GLUT1; RCC4/VHL cell lysates): did not bind; binding of GLUT1 to Affi-gel immobilized compound, RCC4 lysates (GLUT1): did not bind
–	Cc1cccc(Nc2nc(-c3ccncc3)cs2)c1 [4-(pyridin-4-yl)-N-(m-tolyl)thiazol-2-amine, reference compound]	–	glucose uptake in VHL-deficient RCC4 cells (RCC4 [5]): did not decrease glucose uptake; glucose uptake within tumors by FDG-PET (786-O): did not have a decrease in glucose uptake
181 to 182	COC(=O)CCc1ccc(S(=O)(=O)NCc2ccc(C(=O)Nc3cccnc3)cc2)cc1 [Example 41, Methyl 3-{4-[({4-[(3-Pyridinylamino)carbonyl]benzyl}amino)sulfonyl]phenyl}propanoate]	> 20	–
186 to 188	O=C(Nc1cnc2ccccc2c1)c1ccc(CNS(=O)(=O)c2ccccc2)cc1 [Example 6, 4-(Phenylsulfonamidomethyl)-N-(quinolin-3-yl)benzamide]	> 20	–
–	NCCOCCOCCOCCOCCOCCOCC#Cc1ccc(S(=O)(=O)NCc2ccc(C(=O)Nc3cccnc3)cc2)cc1 [Example 100, 4-[({[4-(21-Amino-4,7,10,13,16,19-hexaoxahenicos-1-yn-1-yl)phenyl]sulfonyl}amino)methyl]-N-(3-pyridinyl)benzamide]	1 to 20	Ratio (RCC4:RCC/VHL) (RCC4/VHL [2]): a (“a” reflects a ratio of RCC4/RCC-VHL+ ranging from 1 to 10); binding of GLUT1 to Affi-gel immobilized compound, RCC4 lysates (GLUT1): bound
172 to 174	COCCCc1ccc(S(=O)(=O)NCc2ccc(C(=O)Nc3cccnc3)cc2)cc1 [Example 101, 4-[({[4-(3-Methoxypropyl)phenyl]sulfonyl}amino)methyl]-N-(3-pyridinyl)benzamide]	1 to 20	–
231 to 233	COc1ccncc1NC(=O)c1ccc(CNS(=O)(=O)c2ccc(C(C)(C)C)cc2)cc1 [Example 124, 4-({[(4-tert-Butylphenyl)sulfonyl]amino}methyl)-N-(4-methoxy-3-pyridinyl)benzamide]	> 20	–
